Source: PubChem BioAssay AID1963841 (Molecular Pharmacology Branch, DTP, NCI, 2024)

System: 439559-082-T-J2-PDC spheroid viability
Test: Anticancer human tumor 439559-082-T-J2-PDC patient-derived colon adenocarcinoma cell line growth inhibition [POLQ]
Settings: spheroids with HUVEC and MSC; for IC50: curve of first compound; for viability, T/C: stronger effect = lower value
How it was run: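 Patient-derived tumour cells were co-cultured with HUVEC and mesenchymal stem cells as multicellular spheroids at 37 °C. They were treated with POLQ inhibitors (novobiocin, ART-558, RP6685) alone or combined with other agents. Top concentrations were at or near clinical Cmax (otherwise 10 microM; SN-38 at 1 microM), decreasing in half-log steps.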

[1] = second compound 0.0316 µM, first compound 0.0316 µM
[2] = second compound 0.0316 µM, first compound 0.1 µM
[3] = second compound 0.0316 µM, first compound 0.316 µM
[4] = second compound 0.0316 µM, first compound 1 µM
[5] = second compound 0.0316 µM, first compound 3.16 µM
[6] = second compound 0.0316 µM, first compound 10 µM
[7] = second compound 0.1 µM, first compound 0.0316 µM
[8] = second compound 0.1 µM, first compound 0.1 µM
[9] = second compound 0.1 µM, first compound 0.316 µM
[10] = second compound 0.1 µM, first compound 1 µM
[11] = second compound 0.1 µM, first compound 3.16 µM
[12] = second compound 0.1 µM, first compound 10 µM
[13] = second compound 0.316 µM, first compound 0.0316 µM
[14] = second compound 0.316 µM, first compound 0.1 µM
[15] = second compound 0.316 µM, first compound 0.316 µM
[16] = second compound 0.316 µM, first compound 1 µM
[17] = second compound 0.316 µM, first compound 3.16 µM
[18] = second compound 0.316 µM, first compound 10 µM
[19] = second compound 1 µM, first compound 0.0316 µM
[20] = second compound 1 µM, first compound 0.1 µM
[21] = second compound 1 µM, first compound 0.316 µM
[22] = second compound 1 µM, first compound 1 µM
[23] = second compound 1 µM, first compound 3.16 µM
[24] = second compound 1 µM, first compound 10 µM
[25] = second compound 3.16 µM, first compound 0.0316 µM
[26] = second compound 3.16 µM, first compound 0.1 µM
[27] = second compound 3.16 µM, first compound 0.316 µM
[28] = second compound 3.16 µM, first compound 1 µM
[29] = second compound 3.16 µM, first compound 3.16 µM
[30] = second compound 3.16 µM, first compound 10 µM
[31] = second compound 10 µM, first compound 0.0316 µM
[32] = second compound 10 µM, first compound 0.1 µM
[33] = second compound 10 µM, first compound 0.316 µM
[34] = second compound 10 µM, first compound 1 µM
[35] = second compound 10 µM, first compound 3.16 µM
[36] = second compound 10 µM, first compound 10 µM
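Also: spheroids exposed to compounds for seven days before readout.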
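For viability, T/C in this document: 100% = DMSO vehicle control viability.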

Compound: CNCc1ccc(-c2[nH]c3cc(F)cc4c3c2CCNC4=O)cc1 + Cc1cccc(N(C)C(=O)C2C(O)CCN2c2nc(C)cc(C(F)(F)F)c2C#N)c1
- IC50 (second compound 0.0316 µM): > 10 µM
- IC50 (second compound 0.1 µM): > 10 µM
- IC50 (second compound 0.316 µM): > 10 µM
- IC50 (second compound 1 µM): > 10 µM
- IC50 (second compound 3.16 µM): > 10 µM
- IC50 (second compound 10 µM): > 10 µM
- viability, T/C [1]: 94.8%
- viability, T/C [2]: 108%
- viability, T/C [3]: 99.3%
- viability, T/C [4]: 96.5%
- viability, T/C [5]: 102%
- viability, T/C [6]: 110%
- viability, T/C [7]: 103%
- viability, T/C [8]: 105%
- viability, T/C [9]: 108%
- viability, T/C [10]: 95.8%
- viability, T/C [11]: 101%
- viability, T/C [12]: 96.8%
- viability, T/C [13]: 105%
- viability, T/C [14]: 105%
- viability, T/C [15]: 98.3%
- viability, T/C [16]: 114%
- viability, T/C [17]: 102%
- viability, T/C [18]: 102%
- viability, T/C [19]: 99.3%
- viability, T/C [20]: 92.6%
- viability, T/C [21]: 92.2%
- viability, T/C [22]: 106%
- viability, T/C [23]: 95.7%
- viability, T/C [24]: 106%
- viability, T/C [25]: 105%
- viability, T/C [26]: 98.3%
- viability, T/C [27]: 96.9%
- viability, T/C [28]: 99.1%
- viability, T/C [29]: 102%
- viability, T/C [30]: 99.5%
- viability, T/C [31]: 88.4%
- viability, T/C [32]: 92.8%
- viability, T/C [33]: 93.5%
- viability, T/C [34]: 91.1%
- viability, T/C [35]: 97.2%
- viability, T/C [36]: 100%

Compound: CCc1c2c(nc3ccc(O)cc13)-c1cc3c(c(=O)n1C2)COC(=O)[C@]3(O)CC + Cc1cccc(N(C)C(=O)C2C(O)CCN2c2nc(C)cc(C(F)(F)F)c2C#N)c1
- IC50 (second compound 0.0316 µM): 0.739 µM
- IC50 (second compound 0.1 µM): 0.705 µM
- IC50 (second compound 0.316 µM): 0.698 µM
- IC50 (second compound 1 µM): 0.708 µM
- IC50 (second compound 3.16 µM): 0.968 µM
- IC50 (second compound 10 µM): 0.702 µM
- viability, T/C (second compound 0.0316 µM, first compound 0.00316 µM): 92.9%
- viability, T/C (second compound 0.0316 µM, first compound 0.01 µM): 82.2%
- viability, T/C [1]: 70.8%
- viability, T/C [2]: 74.7%
- viability, T/C [3]: 64%
- viability, T/C [4]: 43.2%
- viability, T/C (second compound 0.1 µM, first compound 0.00316 µM): 90.9%
- viability, T/C (second compound 0.1 µM, first compound 0.01 µM): 87%
- viability, T/C [7]: 74.5%
- viability, T/C [8]: 68.3%
- viability, T/C [9]: 65.7%
- viability, T/C [10]: 42.8%
- viability, T/C (second compound 0.316 µM, first compound 0.00316 µM): 95.3%
- viability, T/C (second compound 0.316 µM, first compound 0.01 µM): 82.2%
- viability, T/C [13]: 76.3%
- viability, T/C [14]: 70.6%
- viability, T/C [15]: 63%
- viability, T/C [16]: 42.9%
- viability, T/C (second compound 1 µM, first compound 0.00316 µM): 90.9%
- viability, T/C (second compound 1 µM, first compound 0.01 µM): 90.9%
- viability, T/C [19]: 74%
- viability, T/C [20]: 67.1%
- viability, T/C [21]: 62.5%
- viability, T/C [22]: 44.9%
- viability, T/C (second compound 3.16 µM, first compound 0.00316 µM): 90.3%
- viability, T/C (second compound 3.16 µM, first compound 0.01 µM): 76.8%
- viability, T/C [25]: 72.1%
- viability, T/C [26]: 71%
- viability, T/C [27]: 62.8%
- viability, T/C [28]: 47.2%
- viability, T/C (second compound 10 µM, first compound 0.00316 µM): 80.6%
- viability, T/C (second compound 10 µM, first compound 0.01 µM): 76.3%
- viability, T/C [31]: 66.9%
- viability, T/C [32]: 68.4%
- viability, T/C [33]: 60.5%
- viability, T/C [34]: 44.9%

Compound: COc1cccc2c1C(=O)c1c(O)c3c(c(O)c1C2=O)CC(O)(C(=O)CO)CC3OC1CC(N)C(O)C(C)O1 (stereo unspecified) + COC1C(OC(N)=O)C(O)C(Oc2ccc3c(O)c(NC(=O)c4ccc(O)c(CC=C(C)C)c4)c(=O)oc3c2C)OC1(C)C
- IC50 (second compound 0.0316 µM): 9.87 µM
- IC50 (second compound 0.1 µM): > 10 µM
- IC50 (second compound 0.316 µM): 6.36 µM
- IC50 (second compound 1 µM): 9.5 µM
- IC50 (second compound 3.16 µM): 7.79 µM
- IC50 (second compound 10 µM): 7.69 µM
- viability, T/C [1]: 94.1%
- viability, T/C [2]: 102%
- viability, T/C [3]: 88.1%
- viability, T/C [4]: 70%
- viability, T/C [5]: 64.5%
- viability, T/C [6]: 47.9%
- viability, T/C [7]: 105%
- viability, T/C [8]: 108%
- viability, T/C [9]: 82.9%
- viability, T/C [10]: 68.2%
- viability, T/C [11]: 59.9%
- viability, T/C [12]: 49.6%
- viability, T/C [13]: 97.7%
- viability, T/C [14]: 98.8%
- viability, T/C [15]: 77.3%
- viability, T/C [16]: 70.2%
- viability, T/C [17]: 59.7%
- viability, T/C [18]: 44.3%
- viability, T/C [19]: 98.8%
- viability, T/C [20]: 104%
- viability, T/C [21]: 84.7%
- viability, T/C [22]: 65.8%
- viability, T/C [23]: 56.1%
- viability, T/C [24]: 47.7%
- viability, T/C [25]: 104%
- viability, T/C [26]: 98.9%
- viability, T/C [27]: 85.2%
- viability, T/C [28]: 66.4%
- viability, T/C [29]: 61.8%
- viability, T/C [30]: 46.2%
- viability, T/C [31]: 95.3%
- viability, T/C [32]: 105%
- viability, T/C [33]: 85.9%
- viability, T/C [34]: 67.5%
- viability, T/C [35]: 61.4%
- viability, T/C [36]: 45.4%
